# According to paper PMC4947994 (Acta Naturae, 2016):
# Columns and labels:
# human PARP-1 = target: T1, human PARP-1 (Homo sapiens, UniProt P09874); test: biochemical; assay type: biochemical; conditions: for IC50: auto-poly(ADP-ribosyl)ation, NAD+ 0.3 mM, 37°C
# T1 construct: made in house
# Experimental: (§1) Recombinant human PARP-1 and murine PARP- 2 proteins were purified as described previously. Reaction of poly(ADP-ribosyl)ation catalyzed by PARP-1 and PARP-2 was performed at optimal conditions for each enzyme. Briefly, for PARP-1: 50 mM Tris-HCl pH 8.0, 20 mM MgCl2, 150 mM NaCl, 7 mM β-mercaptoethanol, activated DNA (2 o.u.280/ml, degree of activation 25%), 300 •µM NAD^+ (0.18 •µCi [^3H]NAD^+), 37°C. The reaction was started by adding PARP-1 up to a final concentration of 0.2 μM and was stopped after 1 min, placing the reaction mixture on paper filters (Whatman-1) soaked with a 5% solution of trichloroacetic acid. For PARP-2: 50 mM Tris-HCl pH 8.0, 40 mM NaCl, 0.1 mg/ml BSA, 8 mM MgCl2, 1 mM DTT, activated DNA (2 o.u.280/ml, degree of activation 25%), 400 •µM NAD^+ (0.4 •µCi [^3H]NAD^+), 37°C. The reaction was started by adding PARP-2 up to a final concentration of 0.2 μM and was stopped after 5 min, placing the reaction mixture on the paper filters. The filters were washed four times by the 5% trichloroacetic acid, then by 90% ethanol (to remove acid), and air-dried. The quantity of radiolabel included into the acid insoluble product was registered on a scintillation counter Tri-Carb 2800 (Perkin Elmer) in a toluene scintillator. The quantity of the radiolabeled product was determined at the initial rate period.
# (§2) The PARP-inhibiting activity of the synthesized compounds was evaluated in a reaction of auto- poly(ADP-ribosyl)ation at a NAD^+ concentration of 0.3 mM for PARP-1 and 0.4 mM for PARP-2. Different concentrations of the tested compounds were added to the reaction mixture before adding the enzyme. Reaction and detection of the products were performed as described above. To determine the IC50 value (concentration of the compound required to reduce the enzyme activity by 50%), the effect of different concentrations of the inhibitor on the enzyme activity was examined. Measurements were done in at least two independent experiments. IC50 values were calculated using the Origin Pro 8.0 software by nonlinear regression analysis.
# murine PARP-2 = target: T2, murine PARP-2 (Mus musculus, UniProt O88554); test: PARP-2 auto-poly(ADP-ribosyl)ation enzyme assay ([3H]NAD+ incorporation); assay type: biochemical; conditions: for IC50: auto-poly(ADP-ribosyl)ation, NAD+ 0.4 mM, 37°C
# T2 construct: made in house
# Experimental: as §1, §2
# PARP-1 = conditions: cited from earlier work
# HCC1937 cells [1] = test: Cytotoxicity: Sub-G1 population by flow cytometry; assay type: cell-based, human; conditions: for Sub-G1 population: 72 h
# Experimental: (§3) A BRCA1-deficient human breast cancer line HCC1937 (ATCC CRL-2336) was cultured in DMEM supplemented with 10% heat-inactivated fetal bovine serum, penicillin/streptomycin (100 U/ml), and pyruvate (0,11 mg/ml) at 37°C in 20% O2 humidified atmosphere. The cells were maintained in a logarithmic growth phase for all experiments.
# (§4) To perform cell cycle analysis, the cells were then harvested after 72 hours, fixed with 70% EtOH (final concentration) for 60 min on ice, rinsed in PBS, and stained in a 500 •µl solution containing 50 •µg/ml propidium iodide and 25 •µg/ml RNase A for 15 min. Data were acquired by a BD FACS CantoII flow cytometer (BD Biosciences) and analyzed using the FACSDiva software. The cleavage of the fluorogenic peptide substrate […] was measured using a fluorometric assay. Upon treatment with cytotoxic agents, the cells were incubated for 48 hours, then harvested and washed with PBS. After centrifugation, they were re-suspended in PBS at a concentration of 2 × 10^6 cells/100 μl. Then, 25 μl of the suspension was added to a 96-well plate and mixed with a DEVD peptide substrate dissolved in a standard reaction buffer (100 mM HEPES, 10% sucrose, 5 mM DTT, 0.001% NP- 40, and 0.1% CHAPS, pH 7.2). Cleavage of the fluorogenic peptide substrate was monitored by AMC liberation in a VarioScan Flash multimode detector (Thermo Scientific) using 380 nm excitation and 460 nm emission wavelengths. Measurements were done in at least two independent experiments.
# PARP = test system: PARP; parameters: method as in PMID 11149897, PMID 16870158; conditions: cited from earlier work
# HCC1937 cells [2] = test: Caspase-3-like activity (fluorogenic peptide substrate cleavage); assay type: cell-based, human; conditions: 7-methylguanine alone, 48 h
# Experimental: as §3
# as §4, with “Then, 25 μl of the suspension was added to a 96-well plate and mixed with a DEVD peptide substrate dissolved in a standard reaction buffer (100 mM HEPES, 10% sucrose, 5 mM DTT, 0.001% NP- 40, and 0.1% CHAPS, pH 7.2).” left out, “Measurements were done in at least two independent experiments.” left out
# [3] = replacement of 2-oxo group by amino group
# T1 sequence (P09874 whole entry): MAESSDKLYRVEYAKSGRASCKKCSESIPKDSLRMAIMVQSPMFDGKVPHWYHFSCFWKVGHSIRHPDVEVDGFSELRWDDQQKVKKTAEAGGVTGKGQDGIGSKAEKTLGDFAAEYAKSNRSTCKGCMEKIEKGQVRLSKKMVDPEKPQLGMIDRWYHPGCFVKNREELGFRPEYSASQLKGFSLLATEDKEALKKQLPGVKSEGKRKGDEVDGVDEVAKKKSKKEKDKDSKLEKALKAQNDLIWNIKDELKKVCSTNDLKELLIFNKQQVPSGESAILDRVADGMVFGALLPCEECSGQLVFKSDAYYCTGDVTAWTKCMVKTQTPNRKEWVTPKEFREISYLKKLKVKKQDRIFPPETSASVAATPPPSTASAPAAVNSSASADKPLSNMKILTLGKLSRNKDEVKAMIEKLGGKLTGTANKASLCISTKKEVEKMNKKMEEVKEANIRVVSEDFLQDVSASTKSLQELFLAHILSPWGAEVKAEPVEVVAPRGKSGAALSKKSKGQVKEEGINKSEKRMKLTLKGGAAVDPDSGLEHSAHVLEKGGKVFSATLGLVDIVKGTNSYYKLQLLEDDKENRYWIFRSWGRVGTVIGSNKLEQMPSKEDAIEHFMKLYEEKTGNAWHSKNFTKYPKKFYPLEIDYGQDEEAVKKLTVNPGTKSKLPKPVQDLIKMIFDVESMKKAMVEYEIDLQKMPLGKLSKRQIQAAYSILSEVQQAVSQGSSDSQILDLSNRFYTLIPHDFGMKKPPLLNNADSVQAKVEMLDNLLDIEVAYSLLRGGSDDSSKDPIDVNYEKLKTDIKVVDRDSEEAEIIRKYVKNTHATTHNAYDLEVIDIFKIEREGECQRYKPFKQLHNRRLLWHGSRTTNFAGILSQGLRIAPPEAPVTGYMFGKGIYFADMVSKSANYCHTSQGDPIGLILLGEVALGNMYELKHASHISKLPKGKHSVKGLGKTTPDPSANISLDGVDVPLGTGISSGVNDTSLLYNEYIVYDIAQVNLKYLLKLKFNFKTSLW
# T2 sequence (O88554 whole entry): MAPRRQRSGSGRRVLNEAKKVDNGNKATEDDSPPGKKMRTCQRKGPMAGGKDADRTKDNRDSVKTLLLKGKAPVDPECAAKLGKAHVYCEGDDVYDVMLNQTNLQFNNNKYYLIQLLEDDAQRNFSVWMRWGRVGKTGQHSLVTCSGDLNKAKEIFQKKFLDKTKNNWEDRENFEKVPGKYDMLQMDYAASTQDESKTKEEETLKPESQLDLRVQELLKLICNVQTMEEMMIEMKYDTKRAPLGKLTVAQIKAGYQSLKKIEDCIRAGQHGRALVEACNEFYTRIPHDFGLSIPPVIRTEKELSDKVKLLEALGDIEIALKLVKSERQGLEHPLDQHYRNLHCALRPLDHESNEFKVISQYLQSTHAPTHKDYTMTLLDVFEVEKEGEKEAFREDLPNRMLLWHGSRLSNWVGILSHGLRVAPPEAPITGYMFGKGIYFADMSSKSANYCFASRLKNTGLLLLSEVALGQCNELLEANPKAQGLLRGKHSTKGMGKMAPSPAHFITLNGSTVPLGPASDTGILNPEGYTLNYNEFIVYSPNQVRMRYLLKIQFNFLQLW
compound,measurement,setting,value
"CCn1cnc2[nH]c(N)nc(=O)c21 [7-ethylguanine, 7-Ethylguanine]",IC50,human PARP-1,230 µM
same,IC50,murine PARP-2,90 µM
"Cn1cnc2[nH]c(=O)[nH]c(=O)c21 [7-methylxanthine, 7-Methylxanthine]",IC50,human PARP-1,800 µM
same,IC50,murine PARP-2,160 µM
same,PARP-1 inhibition,PARP-1,moderate inhibitor
"N.N.[Cl][Pt][Cl] [cisplatin, reference compound]",Sub-G1 population,HCC1937 cells [1]; cisplatin 70 μM alone,34%
O=c1[nH]cnc2nc[nH]c12 [hypoxanthine],PARP inhibitory effect,PARP,relatively weak inhibitory effect
"O=c1[nH]c(=O)c2nc[nH]c2[nH]1 [xanthine, reference compound]",PARP-1 inhibition,PARP-1,does not show inhibition
"Cn1cnc2nc[nH]c(=O)c21 [7-methylhypoxanthine, 7-Methylhypoxanthine]",IC50,human PARP-1,780 µM
same,IC50,murine PARP-2,620 µM
"Cn1cnc2nc(N)[nH]c(=O)c21 [7-methylguanine, 7-Methylguanine]",IC50,human PARP-1,150 µM
same,increase in the ability to inhibit PARP-1 compared with 7-methylxanthine,human PARP-1; [3],5 fold
same,IC50,murine PARP-2,50 µM
same,increase in the ability to inhibit PARP-2 compared with 7-methylxanthine,murine PARP-2; [3],3 fold
same,Sub-G1 population,HCC1937 cells [1]; 7-methylguanine 150 μM alone,around 2%
same,cytotoxicity,"HCC1937 cells [1]; at the PARP inhibitory concentration, 7-methylguanine alone",not cytotoxic
same,caspase-3 activation,HCC1937 cells [2],no caspase-3 activation
"COc1cccc2c1C(=O)c1c(O)c3c(c(O)c1C2=O)C[C@@](O)(C(=O)CO)C[C@@H]3O[C@H]1C[C@H](N)[C@H](O)[C@H](C)O1 [doxorubicin, reference compound]",Sub-G1 population,HCC1937 cells [1]; doxorubicin 1 μM alone,32%
Cc1c[nH]c(=O)[nH]c1=O [thymine],PARP inhibitory effect,PARP,relatively weak inhibitory effect
